{
  "source": "patent US20150238490A1",
  "about": "(Pharmacyclics, Inc., priority 2014, published 2015)",
  "key": {"CLL patients": {"test_system": "CLL patients", "details": "plasma, previous studies; cited from earlier work"}, "[1]": {"test_system": "DB cell line (GCB subtype DLBCL)", "assay": "CCL3/CCL4 secretion by DLBCL cell line, supernatant ELISA", "assay_type": "cell-based, human", "details": "1 μM ibrutinib, supernatant after 24 h", "experimental": "(§1) For BCR stimulation, culture medium was supplemented with 10 μg/mL anti-IgM (polyclonal goat F(ab′)2 fragments to human IgM, MP Biomedicals) for the indicated time periods.\n(§2) All DLBCL cell lines were grown in RPMI 1640 medium (Hyclone) supplemented with glutamine, beta-mercaptoethanol, penicillin/streptomycin and 10% fetal bovine serum, except for OCI-Ly3 and OCI-Ly10, which were maintained in Iscove's modified Dulbecco's medium (Gibco) supplemented with beta-mercaptoethanol, penicillin/streptomycin and 20% heparinized human plasma. All cell lines were grown in a humidified 5% CO2 incubator at 37° C. DLBCL cell lines included TMD8, HBL-1, OCI-Ly10, OCI-Ly3, DB and OCI-Ly19.\n(§3) Cell culture supernatant samples from DLBCL cell lines were used after 24 h for the measurement of CCL3 and CCL4 levels for quantification by ELISA using Quantikine Kits (R&D Systems). The absorbance was recorded by a microplate reader (ELx808, Bio-Tek Instruments), and data collection and analysis were performed using Gen5 software Version 1.08 (Bio-Tek Instruments).\n(§4) Peripheral blood serum samples were obtained from the tissue bank of the Department of Lymphoma and Myeloma at MDACC or from the University of Nebraska Medical Center. All serum samples were aliquoted and stored at the time of initial referral to each institution. Serum and cell culture supernatant CCL3 and CCL4 levels were quantified by ELISA using Quantikine Kits (R&D Systems) and was conducted at MDACC (Sivina M, Hartmann E, Kipps T J, et al. “CCL3 (MIP-1alpha) plasma levels and the risk for disease progression in chronic lymphocytic leukemia.” Blood. 2011; 117(5):1662-1669.). The absorbance was recorded on a microplate reader (ELx808, Bio-Tek Instruments), and data collection and analysis were performed using Gen5 software Version 1.08 (Bio-Tek Instruments)."}, "[2]": {"test_system": "HBL-1 cell line (ABC subtype DLBCL)", "assay": "CCL3/CCL4 secretion by DLBCL cell line, supernatant ELISA", "assay_type": "cell-based, human", "details": "for mean supernatant concentration of CCL3: 24 h", "experimental": "as §1, §2, §3, §4"}, "[3]": {"test_system": "OCI-Ly10 cell line (ABC subtype DLBCL)", "assay": "CCL3/CCL4 secretion by DLBCL cell line, supernatant ELISA", "assay_type": "cell-based, human", "details": "1 μM ibrutinib, supernatant after 24 h", "experimental": "as §1, §2, §3, §4"}, "[4]": {"test_system": "OCI-Ly19 cell line (GCB subtype DLBCL)", "assay": "CCL3/CCL4 secretion by DLBCL cell line, supernatant ELISA", "assay_type": "cell-based, human", "details": "1 μM ibrutinib, supernatant after 24 h", "experimental": "as §1, §2, §3, §4"}, "[5]": {"test_system": "OCI-Ly3 cell line (ABC subtype DLBCL, CARD11 mutation)", "assay": "CCL3/CCL4 secretion by DLBCL cell line, supernatant ELISA", "assay_type": "cell-based, human", "details": "1 μM ibrutinib, supernatant after 24 h", "experimental": "as §1, §2, §3, §4"}, "[6]": {"test_system": "TMD8 cell line (ABC subtype DLBCL)", "assay": "CCL3/CCL4 secretion by DLBCL cell line, supernatant ELISA", "assay_type": "cell-based, human", "experimental": "as §1, §2, §3, §4"}, "DLBCL patients": {"test_system": "DLBCL patients", "assay": "Serum CCL3 and CCL4 pre- and post-treatment in patients with DLBCL", "assay_type": "in vivo, human", "details": "in most patients", "excerpt": "The study included 102 patients from MD Anderson Cancer Center (MDACC) with newly diagnosed DLBCL between January 2009 and February 2011 (MDA test cohort). In addition, a second set of 51 patients from MDACC with newly diagnosed DLBCL was included for validation analysis (MDA validation cohort). Nineteen patients with newly diagnosed DLBCL from the University of Nebraska were also included in the correlation analysis between serum CCL3/CCL4 levels and GCB vs. non-GCB subtype (Nebraska cohort). […] Demographics and other clinical parameters for both MDACC test and validation cohort were obtained at the time of initial referral to MDACC. DLBCL diagnosis was established by institutional pathologists according to the WHO classification. Immunophenotypic classification (GCB vs. non-GCB subtype) of DLBCL was determined by Hans criteria. […]\nPeripheral blood serum samples were obtained from the tissue bank of the Department of Lymphoma and Myeloma at MDACC or from the University of Nebraska Medical Center. […] Serum and cell culture supernatant CCL3 and CCL4 levels were quantified by ELISA using Quantikine Kits (R&D Systems) and was conducted at MDACC (Sivina M, Hartmann E, Kipps T J, et al. “CCL3 (MIP-1alpha) plasma levels and the risk for disease progression in chronic lymphocytic leukemia.” Blood. 2011; 117(5):1662-1669.). […]"}, "[7]": {"details": "1 μM ibrutinib, alone or with 10 μg/mL anti-IgM, supernatant after 24 h"}, "[8]": {"details": "ibrutinib titration (3.1-1000 nM) in combination with 10 μg αIgM"}},
  "note": "Entries after “also recorded” stand apart in the source; their conditions may differ.",
  "data": [
    {"smiles": "CC[C@H](Nc1ncnc2[nH]cnc12)c1nc2cccc(F)c2c(=O)n1-c1ccccc1", "note": "[GS-1101/CAL-101/idelalisib]", "values": [
      {"measurement": "elevated CCL3 and CCL4 levels after pharmacologic inhibition of BCR signaling", "setting": "CLL patients", "result": "rapidly normalize"}
    ]},
    {"smiles": "C=CC(=O)N1CCC[C@@H](n2nc(-c3ccc(Oc4ccccc4)cc3)c3c(N)ncnc32)C1", "note": "[ibrutinib, 1-((R)-3-(4-amino-3-(4-phenoxyphenyl)-1H-pyrazolo[3,4-d]pyrimidin-1-yl)piperidin-1-yl)prop-2-en-1-one]", "values": [
      {"measurement": "CCL3 level after ibrutinib treatment", "setting": "[1]", "result": "did not respond; also recorded: unaffected"},
      {"measurement": "CCL4 level after ibrutinib treatment", "setting": "[1]", "result": "did not respond; also recorded: unaffected"},
      {"measurement": "mean supernatant concentration of CCL3", "setting": "[2]; 1 μM ibrutinib alone (unstimulated cells), baseline 1705.5 pg/mL", "result": "313.2 (±6.8) pg/mL"},
      {"measurement": "mean supernatant concentration of CCL3", "setting": "[2]; 1 μM ibrutinib in combination with 10 μg/mL anti-IgM", "result": "2029.16 (±26.9) pg/mL"},
      {"measurement": "CCL3 level after ibrutinib treatment", "setting": "[2]; [7]", "result": "abrogated; also recorded: significantly decreased"},
      {"measurement": "CCL4 level after ibrutinib treatment", "setting": "[2]; [7]", "result": "abrogated; also recorded: significantly decreased"},
      {"measurement": "ibrutinib concentration resulting in the lowest CCL3 level", "setting": "[2]; [8]", "result": 500, "unit": "nM"},
      {"measurement": "ibrutinib concentration resulting in the lowest CCL4 level", "setting": "[2]; [8]", "result": 500, "unit": "nM"},
      {"measurement": "CCL3 level after ibrutinib treatment", "setting": "[3]", "result": "sensitive to inhibition; also recorded: significant decrease"},
      {"measurement": "CCL4 level after ibrutinib treatment", "setting": "[3]", "result": "sensitive to inhibition; also recorded: significant decrease"},
      {"measurement": "CCL3 level after ibrutinib treatment", "setting": "[4]", "result": "did not respond; also recorded: unaffected"},
      {"measurement": "CCL4 level after ibrutinib treatment", "setting": "[4]", "result": "did not respond; also recorded: unaffected"},
      {"measurement": "CCL3 level after ibrutinib treatment", "setting": "[5]", "result": "did not respond; also recorded: unaffected"},
      {"measurement": "CCL4 level after ibrutinib treatment", "setting": "[5]", "result": "did not respond; also recorded: unaffected"},
      {"measurement": "CCL3 level after ibrutinib treatment", "setting": "[6]; [7]", "result": "abrogated; also recorded: significantly decreased"},
      {"measurement": "CCL4 level after ibrutinib treatment", "setting": "[6]; [7]", "result": "abrogated; also recorded: significantly decreased"},
      {"measurement": "CCL3 level after BCR stimulation, ibrutinib titration", "setting": "[6]; 1000 nM ibrutinib with 10 μg αIgM, decreased level maintained at 500 nM and 100 nM", "result": "decreased"},
      {"measurement": "CCL4 level after BCR stimulation, ibrutinib titration", "setting": "[6]; 1000 nM ibrutinib with 10 μg αIgM, decreased level maintained at 500 nM, 100 nM and 50 nM", "result": "decreased"},
      {"measurement": "high concentrations of serum CCL3 and CCL4 after therapy", "setting": "DLBCL patients", "result": "returned to low levels"}
    ]}
  ]
}
